{"source": "paper PMC7979765", "about": "“trans-Translation inhibitors bind to a novel site on the ribosome and clear Neisseria gonorrhoeae in vivo” (Nature Communications, 2021)", "key": {"[1]": {"test": "Aqueous solubility (nephelometric)", "assay_type": "physicochemical"}, "[2]": {"tested_on": "trans-translation", "test": "microbe, parasite or virus in culture", "assay_type": "cell-based, Escherichia coli", "conditions": "for Luminescence readout (Envision plate reader) / Luminescence, background subtracted (DMSO control): per replicate", "description": "To verify that MBX-4132 retains activity as an inhibitor of trans-translation, we measured its dose-dependent activity against the non-stop luciferase reporter assay strain E. coli SB75 ΔtolC::kan (pluc-trpAt) essentially as described, with modifications. Briefly, serial 1.5-fold dilutions of MBX-4132 in DMSO were transferred to 96-well assay plates (Costar 3195), followed by the addition of 50 µl of an overnight culture of SB75 ΔtolC::kan (pluc-trpAt) that had been diluted to a final OD600 of 0.4 with LB media supplemented with 100 µg ampicillin/ml and 1 mM IPTG. […] The assay plates were incubated at room temperature for 2 h, and 50 µl of BrightGlo (Promega) bioluminescence reagent was added to each well. After 10 min incubation, bioluminescence intensity was measured using an Envision multi-label plate reader (Perkin Elmer). Each assay comprised three technical replicates, and the experiment was repeated three times. The fold induction for each MBX-4132 treated sample as compared to the DMSO-only sample was calculated for each technical replicate, and the average and standard deviation of the three technical was calculated. The IC50 was determined using a 4-parameter nonlinear curve fitting algorithm (GraphPad Prism)."}, "[3]": {"tested_on": "Neisseria gonorrhoeae", "test": "MIC, microbroth dilution, G77L medium", "assay_type": "cell-based", "conditions": "Neisseria gonorrhoeae ATCC 49226; source data, individual replicates"}, "[4]": {"test": "Liver microsome stability, murine", "assay_type": "in vitro ADME, mouse", "conditions": "murine liver microsomes", "method_in_brief": "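Compounds incubated with liver microsomes plus NADPH over 30 min; parent remaining quantified by reverse-phase LC/MS. Half-life from linear regression over several time points.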"}, "[5]": {"tested_on": "HeLa cells", "test": "Mammalian cell cytotoxicity (CC50)", "assay_type": "cell-based, human", "conditions": "HeLa, replicates", "description": "The half maximal cytotoxic concentration (CC50) of each compound against HeLa cells (ATCC CCL-2) was measured as previously described. […] The mean values for each biological replicate were averaged, and the CC50 was determined using a 4-parameter nonlinear curve fitting algorithm (GraphPad Prism). The average of the CC50s from two biological replicates was calculated and reported."}, "[6]": {"tested_on": "Escherichia coli", "test": "microbe, parasite or virus in culture", "assay_type": "cell-based", "conditions": "E. coli KLE701 (ΔtolC::tet); source data, individual replicates"}, "[7]": {"tested_on": "HeLa cells", "test": "Mammalian cell cytotoxicity (CC50)", "assay_type": "cell-based, human", "conditions": "one value per replicate"}}, "note": "Where “and” joins values, the source holds several entries; their conditions need not be identical. Equal values may be shown once."}
{"compound": "O=C(Nc1nnc(C2CCCCC2)o1)c1ccc(Cl)cc1", "note": "[MBX-4370]", "values": [{"measurement": "Average solubility", "setting": "[1]", "value": 50, "unit": "µM"}, {"measurement": "Solubility", "setting": "[1]; single replicates", "value": 50, "unit": "µM"}, {"measurement": "IC50", "setting": "[2]; Eco Luc reporter, one value per replicate, read-out: IC50", "value": "0.12 µM and 0.122 µM and 0.145 µM"}, {"measurement": "Luminescence readout (Envision plate reader)", "setting": "[2]; [Compound] 0.046875 µM", "value": "496280 and 436160 and 442680"}, {"measurement": "Luminescence readout (Envision plate reader)", "setting": "[2]; [Compound] 0.0625 µM", "value": "452080 and 467160 and 463360"}, {"measurement": "Luminescence, background subtracted (DMSO control)", "setting": "[2]; [Compound] 0.0625 µM", "value": "23120 and 8920 and 25040"}, {"measurement": "Luminescence readout (Envision plate reader)", "setting": "[2]; [Compound] 0.09375 µM", "value": "467480 and 440040 and 454600"}, {"measurement": "Luminescence readout (Envision plate reader)", "setting": "[2]; [Compound] 0.125 µM", "value": "460600 and 443360 and 458920"}, {"measurement": "Luminescence readout (Envision plate reader)", "setting": "[2]; [Compound] 0.1875 µM", "value": "449320 and 468280 and 463760"}, {"measurement": "Luminescence, background subtracted (DMSO control)", "setting": "[2]; [Compound] 0.1875 µM", "value": "20360 and 10040 and 25440"}, {"measurement": "Luminescence readout (Envision plate reader)", "setting": "[2]; [Compound] 0.25 µM", "value": "454000 and 469520 and 468760"}, {"measurement": "Luminescence, background subtracted (DMSO control)", "setting": "[2]; [Compound] 0.25 µM", "value": "25040 and 11280 and 30440"}, {"measurement": "Luminescence readout (Envision plate reader)", "setting": "[2]; [Compound] 0.375 µM", "value": "472720 and 482560 and 460640"}, {"measurement": "Luminescence, background subtracted (DMSO control)", "setting": "[2]; [Compound] 0.375 µM", "value": "43760 and 24320 and 22320"}, {"measurement": "Luminescence readout (Envision plate reader)", "setting": "[2]; [Compound] 0.5 µM", "value": "517120 and 524880 and 509520"}, {"measurement": "Luminescence, background subtracted (DMSO control)", "setting": "[2]; [Compound] 0.5 µM", "value": "88160 and 66640 and 71200"}, {"measurement": "Luminescence readout (Envision plate reader)", "setting": "[2]; [Compound] 0.75 µM", "value": "547920 and 542080 and 527800"}, {"measurement": "Luminescence, background subtracted (DMSO control)", "setting": "[2]; [Compound] 0.75 µM", "value": "118960 and 83840 and 89480"}, {"measurement": "Luminescence readout (Envision plate reader)", "setting": "[2]; [Compound] 1 µM", "value": "530760 and 535720 and 544960"}, {"measurement": "Luminescence, background subtracted (DMSO control)", "setting": "[2]; [Compound] 1 µM", "value": "101800 and 77480 and 106640"}, {"measurement": "Luminescence readout (Envision plate reader)", "setting": "[2]; [Compound] 1.5 µM", "value": "476080 and 424480 and 540520"}, {"measurement": "MIC", "setting": "[3]", "value": "0.2388 µg/mL and 0.1196 µg/mL"}, {"measurement": "Average MLMS t½", "setting": "[4]; average of replicates", "value": "<5", "unit": "min"}, {"measurement": "MLMS t½", "setting": "[4]; individual replicates", "value": "<5", "unit": "min"}, {"measurement": "NORMALIZED DATA (Fraction DMSO Control)", "setting": "[5]; [CMPD] 0.78125 µM", "value": "1.07 Fraction DMSO Control and 1.036 Fraction DMSO Control and 1.021 Fraction DMSO Control and 1.042 Fraction DMSO Control and 1.024 Fraction DMSO Control and 0.9956 Fraction DMSO Control"}, {"measurement": "NORMALIZED DATA (Fraction DMSO Control)", "setting": "[5]; [CMPD] 1.5625 µM", "value": "1.061 Fraction DMSO Control and 1.02 Fraction DMSO Control and 0.9814 Fraction DMSO Control and 1.082 Fraction DMSO Control and 1.03 Fraction DMSO Control and 0.9471 Fraction DMSO Control"}, {"measurement": "NORMALIZED DATA (Fraction DMSO Control)", "setting": "[5]; [CMPD] 3.125 µM", "value": "1.05 Fraction DMSO Control and 1.039 Fraction DMSO Control and 0.9574 Fraction DMSO Control and 1.045 Fraction DMSO Control and 1.018 Fraction DMSO Control and 0.9296 Fraction DMSO Control"}, {"measurement": "NORMALIZED DATA (Fraction DMSO Control)", "setting": "[5]; [CMPD] 6.25 µM", "value": "1.047 Fraction DMSO Control and 1.02 Fraction DMSO Control and 0.985 Fraction DMSO Control and 1.025 Fraction DMSO Control and 0.9985 Fraction DMSO Control and 0.9262 Fraction DMSO Control"}, {"measurement": "NORMALIZED DATA (Fraction DMSO Control)", "setting": "[5]; [CMPD] 12.5 µM", "value": "0.7981 Fraction DMSO Control and 0.8325 Fraction DMSO Control and 0.8129 Fraction DMSO Control and 0.8056 Fraction DMSO Control and 0.7525 Fraction DMSO Control and 0.7321 Fraction DMSO Control"}, {"measurement": "NORMALIZED DATA (Fraction DMSO Control)", "setting": "[5]; [CMPD] 25 µM", "value": "0.4723 Fraction DMSO Control and 0.5367 Fraction DMSO Control and 0.6164 Fraction DMSO Control and 0.4594 Fraction DMSO Control and 0.5425 Fraction DMSO Control and 0.5809 Fraction DMSO Control"}, {"measurement": "NORMALIZED DATA (Fraction DMSO Control)", "setting": "[5]; [CMPD] 50 µM", "value": "0.2465 Fraction DMSO Control and 0.3246 Fraction DMSO Control and 0.4191 Fraction DMSO Control and 0.3946 Fraction DMSO Control and 0.4088 Fraction DMSO Control and 0.4903 Fraction DMSO Control"}, {"measurement": "NORMALIZED DATA (Fraction DMSO Control)", "setting": "[5]; [CMPD] 100 µM", "value": "0.4495 Fraction DMSO Control and 0.5491 Fraction DMSO Control and 0.5315 Fraction DMSO Control and 0.5237 Fraction DMSO Control and 0.6389 Fraction DMSO Control and 0.5972 Fraction DMSO Control"}, {"measurement": "MIC", "setting": "[6]", "value": "0.4778 µg/mL and 0.9555 µg/mL"}, {"measurement": "CC50", "setting": "[7]", "value": "18.1 µM and 19.4 µM and 21.8 µM and 14.3 µM and 14.5 µM and 13.7 µM"}]}
